From patent US11254686B1 (Corvus Pharmaceuticals, Inc., priority 2017, dated 2022)
pIC50: −log10 of the molar value.

What was measured:
Format in all cases: biochemical
[1] = biological target: adenosine A3 receptor (Homo sapiens (Human), UniProt P0DMS8); assay: A3 cAMP IC50 assay (Table 1)
[2] = biological target: adenosine A1 receptor (Homo sapiens (Human), UniProt P30542); assay: A1 cAMP IC50 assay (Table 1)
[3] = biological target: adenosine A2B receptor (Homo sapiens (Human), UniProt P29275); assay: Adenosine receptor activity assay (Table 1), A2B activity; conditions: for Ratio: A2A activity to A2B activity (A2A/A2B); for pIC50: read-out: Ave A2B cAMP IC50
Chain of adenosine A2B receptor (P29275 whole entry): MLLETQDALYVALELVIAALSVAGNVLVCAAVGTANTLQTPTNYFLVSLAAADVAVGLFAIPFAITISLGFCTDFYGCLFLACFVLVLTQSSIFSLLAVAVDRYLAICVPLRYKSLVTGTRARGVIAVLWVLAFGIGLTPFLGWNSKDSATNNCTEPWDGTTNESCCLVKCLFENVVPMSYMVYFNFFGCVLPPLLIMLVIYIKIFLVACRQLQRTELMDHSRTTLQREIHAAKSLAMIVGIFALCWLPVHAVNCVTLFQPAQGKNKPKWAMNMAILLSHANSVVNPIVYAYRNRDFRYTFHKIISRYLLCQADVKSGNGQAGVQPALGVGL

[4] = biological target: adenosine A2A receptor (Homo sapiens (Human), UniProt P29274); assay: Adenosine receptor activity assay (Table 1), A2A activity; conditions: read-out: Ave A2A cAMP IC50
Chain of adenosine A2A receptor (P29274 whole entry): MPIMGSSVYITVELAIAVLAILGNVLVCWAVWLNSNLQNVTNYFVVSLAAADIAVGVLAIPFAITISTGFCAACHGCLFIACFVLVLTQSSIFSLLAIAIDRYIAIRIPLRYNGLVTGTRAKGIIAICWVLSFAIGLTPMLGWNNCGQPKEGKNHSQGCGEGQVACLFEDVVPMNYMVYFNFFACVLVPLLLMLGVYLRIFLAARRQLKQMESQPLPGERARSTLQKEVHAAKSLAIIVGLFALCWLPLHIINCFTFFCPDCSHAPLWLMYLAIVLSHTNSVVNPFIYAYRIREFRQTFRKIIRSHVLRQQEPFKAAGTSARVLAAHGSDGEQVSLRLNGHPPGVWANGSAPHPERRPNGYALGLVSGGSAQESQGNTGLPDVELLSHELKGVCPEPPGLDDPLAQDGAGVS

Chain of adenosine A3 receptor (P0DMS8 whole entry): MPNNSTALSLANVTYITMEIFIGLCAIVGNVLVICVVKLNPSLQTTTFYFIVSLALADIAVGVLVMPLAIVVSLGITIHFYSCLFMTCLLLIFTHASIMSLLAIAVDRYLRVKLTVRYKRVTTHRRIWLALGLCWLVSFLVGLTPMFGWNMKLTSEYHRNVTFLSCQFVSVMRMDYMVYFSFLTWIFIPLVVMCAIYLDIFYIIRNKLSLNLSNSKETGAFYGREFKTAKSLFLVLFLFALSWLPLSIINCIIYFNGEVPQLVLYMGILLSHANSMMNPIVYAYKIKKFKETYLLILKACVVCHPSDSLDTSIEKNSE
Chain of adenosine A1 receptor (P30542 whole entry): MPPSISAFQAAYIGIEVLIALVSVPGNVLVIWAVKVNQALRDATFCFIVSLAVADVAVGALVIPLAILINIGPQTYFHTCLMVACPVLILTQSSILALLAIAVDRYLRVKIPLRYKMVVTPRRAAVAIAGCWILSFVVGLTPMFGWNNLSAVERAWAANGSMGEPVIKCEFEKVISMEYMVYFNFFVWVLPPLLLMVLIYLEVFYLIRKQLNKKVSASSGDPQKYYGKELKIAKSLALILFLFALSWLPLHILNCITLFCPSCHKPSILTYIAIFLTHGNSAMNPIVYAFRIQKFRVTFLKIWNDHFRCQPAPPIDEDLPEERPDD

pIC50 [1]	pIC50 [2]	Ratio [3]	pIC50 [3]	pIC50 [4]	Compound
< 6.30	< 6.30	57.59	7.30 to 8.00	< 6.30	O=C(c1nc(NCc2cncc(Cl)c2)nc2ccsc12)N1CCCC1 [Example Z93, (2-(((5-Chloropyridin-3-yl)methyl)amino)thieno[3,2-d]pyrimidin-4-yl)(pyrrolidin-1-yl)methanone]
< 6.30	< 6.30	8.80	7.30 to 8.00	6.30 to 7.00	O=C(c1nc(NCc2ccccn2)nc2ccsc12)N1CCCC1 [Example Z95, (2-((Pyridin-2-ylmethyl)amino)thieno[3,2-d]pyrimidin-4-yl)(pyrrolidin-1-yl)methanone]
6.30 to 7.00	6.30 to 7.00	0.84	7.00 to 7.30	7.00 to 7.30	C[C@H](Nc1nc(C(=O)NCc2ccc(OCC3CC3)nc2)c2sccc2n1)c1ccccn1 [Example Z107, (S)—N-((6-(Cyclopropylmethoxy)pyridin-3-yl)methyl)-2-((1-(pyridin-2-yl)ethyl)amino)thieno[3,2-d]pyrimidine-4-carboxamide]
< 6.30	< 6.30	32.43	> 8.00	7.00 to 7.30	C[C@H](Nc1nc(C(=O)N2CCC2)c2sccc2n1)c1cccc(F)c1 [Example Z128, (S)-Azetidin-1-yl(2-((1-(3-fluorophenyl)ethyl)amino)thieno[3,2-d]pyrimidin-4-yl)methanone]
< 6.30	< 6.30	20.13	> 8.00	6.30 to 7.00	C[C@H](Nc1nc(C(=O)N2CC[C@@H](O)C2)c2sccc2n1)c1cccc(F)c1 [Example Z132, (2-(((S)-1-(3-Fluorophenyl)ethyl)amino)thieno[3,2-d]pyrimidin-4-yl)((R)-3-hydroxypyrrolidin-1-yl)methanone]
7.30 to 8.00	< 6.30	0.44	7.00 to 7.30	7.30 to 8.00	C[C@H](Nc1nc(C(=O)N[C@H]2CCN(C(=O)OC(C)(C)C)C2)c2sccc2n1)c1ccccn1 [Example Z143, tert-Butyl (S)-3-(2-(((S)-1-(pyridin-2-yl)ethyl)amino)thieno[3,2-d]pyrimidine-4-carboxamido)pyrrolidine-1-carboxylate]
7.00 to 7.30	< 6.30	1.52	7.30 to 8.00	7.00 to 7.30	COCCNC(=O)c1nc(N[C@@H](C)c2ccccn2)nc2ccsc12 [Example Z144, (S)—N-(2-Methoxyethyl)-2-((1-(pyridin-2-yl)ethyl)amino)thieno[3,2-d]pyrimidine-4-carboxamide]
7.00 to 7.30	< 6.30	46.65	> 8.00	6.30 to 7.00	CNc1cc2nc(N[C@@H](C)c3cccnc3)nc(C(=O)N3CCC3)c2s1 [Example Z153, (S)-Azetidin-1-yl(6-(methylamino)-2-((1-(pyridin-3-yl)ethyl)amino)thieno[3,2-d]pyrimidin-4-yl)methanone]
< 6.30	6.30 to 7.00	–	> 8.00	7.30 to 8.00	C[C@H](Nc1nc(C(=O)N[C@H]2C[C@@H](O)C2)c2sccc2n1)c1ccccn1 [Example Z158, N-((1s,3R)-3-Hydroxycyclobutyl)-2-(((S)-1-(pyridin-2-yl)ethyl)amino)thieno[3,2-d]pyrimidine-4-carboxamide]
< 6.30	< 6.30	5.18	7.30 to 8.00	6.30 to 7.00	C[C@H](Nc1nc(C(=O)N[C@H]2C[C@H](O)C2)c2sccc2n1)c1ccccn1 [Example Z159, N-((1r,3S)-3-Hydroxycyclobutyl)-2-(((S)-1-(pyridin-2-yl)ethyl)amino)thieno[3,2-d]pyrimidine-4-carboxamide]
7.00 to 7.30	< 6.30	22.65	7.30 to 8.00	< 6.30	CNc1cc2nc(NCc3ccccn3)nc(C(=O)N3CCCC3)c2s1 [Example Z160, (6-(Methylamino)-2-((pyridin-2-ylmethyl)amino)thieno[3,2-d]pyrimidin-4-yl)(pyrrolidin-1-yl)methanone]
7.00 to 7.30	< 6.30	29.83	> 8.00	6.30 to 7.00	CNc1cc2nc(N[C@@H](C)c3cccnc3)nc(C(=O)N3CC[C@@H](F)C3)c2s1 [Example Z161, ((R)-3-Fluoropyrrolidin-1-yl)(6-(methylamino)-2-(((S)-1-(pyridin-3-yl)ethyl)amino)thieno[3,2-d]pyrimidin-4-yl)methanone]
< 6.30	< 6.30	5.97	7.30 to 8.00	6.30 to 7.00	C[C@H](Nc1nc(C(=O)NC[C@@H](C)O)c2sccc2n1)c1ccccn1 [Example Z162, N—((R)-2-Hydroxypropyl)-2-(((S′)-1-(pyridin-2-yl)ethyl)amino)thieno[3,2-d]pyrimidine-4-carboxamide]
< 6.30	< 6.30	4.38	7.00 to 7.30	6.30 to 7.00	C[C@H](O)CNC(=O)c1nc(N[C@@H](C)c2ccccn2)nc2ccsc12 [Example Z163, N—((S)-2-Hydroxypropyl)-2-(((S)-1-(pyridin-2-yl)ethyl)amino)thieno[3,2-d]pyrimidine-4-carboxamide]
7.00 to 7.30	< 6.30	16.55	7.30 to 8.00	6.30 to 7.00	CC(C)(C)OC(=O)N[C@@H]1CCN(C(=O)c2nc(NCc3cc(F)cc(F)c3)nc3ccsc23)C1 [Example Z167, tert-Butyl (R)-(1-(2-((3,5-difluorobenzyl)amino)thieno[3,2-d]pyrimidine-4-carbonyl)pyrrolidin-3-yl)carbamate]
6.30 to 7.00	6.30 to 7.00	1.24	7.00 to 7.30	7.00 to 7.30	CCOc1ccc(CNC(=O)c2nc(N[C@@H](C)c3ccccn3)nc3ccsc23)cn1 [Example Z170, (S)—N-((6-ethoxypyridin-3-yl)methyl)-2-((1-(pyridin-2-yl)ethyl)amino)thieno[3,2-d]pyrimidine-4-carboxamide]
< 6.30	< 6.30	54.37	7.00 to 7.30	< 6.30	CNc1cc2nc(N[C@@H](C)c3cccnc3)nc(C(=O)N3CC[C@@H](O)C3)c2s1 [Example Z172, ((R)-3-Hydroxypyrrolidin-1-yl)(6-(methylamino)-2-(((S)-1-(pyridin-3-yl)ethyl)amino)thieno[3,2-d]pyrimidin-4-yl)methanone]
7.00 to 7.30	< 6.30	45.26	> 8.00	6.30 to 7.00	CNc1cc2nc(N[C@@H](C)c3ccccn3)nc(C(=O)N3CCC3)c2s1 [Example Z173, (S)-Azetidin-1-yl(6-(methylamino)-2-((1-(pyridin-2-yl)ethyl)amino)thieno[3,2-d]pyrimidin-4-yl)methanone]
7.00 to 7.30	< 6.30	22.59	> 8.00	6.30 to 7.00	CNc1cc2nc(N[C@@H](C)c3ccccn3)nc(C(=O)N3CC[C@@H](F)C3)c2s1 [Example Z175, ((R)-3-fluoropyrrolidin-1-yl)(6-(methylamino)-2-(((S)-1-(pyridin-2-yl)ethyl)amino)thieno[3,2-d]pyrimidin-4-yl)methanone]
7.00 to 7.30	< 6.30	27.44	7.30 to 8.00	< 6.30	CNc1cc2nc(N[C@@H](C)c3ccccn3)nc(C(=O)N3CC[C@@H](O)C3)c2s1 [Example Z176, ((R)-3-Hydroxypyrrolidin-1-yl)(6-(methylamino)-2-(((S)-1-(pyridin-2-yl)ethyl)amino)thieno[3,2-d]pyrimidin-4-yl)methanone]
< 6.30	7.00 to 7.30	7.01	7.30 to 8.00	7.00 to 7.30	O=C(NC1CCC1)c1nc(NCc2cc(F)cc(F)c2)nc2ccsc12 [Example Z177, N-Cyclobutyl-2-((3,5-difluorobenzyl)amino)thieno[3,2-d]pyrimidine-4-carboxamide]
6.30 to 7.00	6.30 to 7.00	1.80	7.30 to 8.00	7.30 to 8.00	C[C@H](Nc1nc(C(=O)NC2CCCC2)c2sccc2n1)c1ccccn1 [Example Z180, (S)—N-Cyclopentyl-2-((1-(pyridin-2-yl)ethyl)amino)thieno[3,2-d]pyrimidine-4-carboxamide]
< 6.30	< 6.30	25.53	7.30 to 8.00	< 6.30	O=C(NC1CC(O)C1)c1nc(NCc2cncc(F)c2)nc2ccsc12 (stereo not shown) [Example Z184, 2-(((5-Fluoropyridin-3-yl)methyl)amino)-N-((1r,3r)-3-hydroxycyclobutyl)thieno[3,2-d]pyrimidine-4-carboxamide]
7.00 to 7.30	< 6.30	48.67	> 8.00	6.30 to 7.00	CNc1cc2nc(N[C@@H](C)c3cccnc3)nc(C(=O)N3CC[C@H](F)C3)c2s1 [Example Z187, ((S)-3-Fluoropyrrolidin-1-yl)(6-(methylamino)-2-(((S)-1-(pyridin-3-yl)ethyl)amino)thieno[3,2-d]pyrimidin-4-yl)methanone]
7.00 to 7.30	< 6.30	36.15	> 8.00	6.30 to 7.00	C[C@H](Nc1nc(C(=O)N2CCC2)c2sc(N)cc2n1)c1ccccn1 [Example Z189, (S)-(6-Amino-2-((1-(pyridin-2-yl)ethyl)amino)thieno[3,2-d]pyrimidin-4-yl)(azetidin-1-yl)methanone]
